Experimental data from patent publication US11000039B2, “Composition for controlling nematode comprising grammicin compound as effective ingredient and uses thereof” (INDUSTRY FOUNDATION OF CHONNAM NATIONAL UNIVERSITY, priority 2016, dated 2021).
≈ marks a conversion by molar mass, not a printed value.

Experiments:
colon cancer cell SW.71 = experiment: MTT cell viability assay (human cytotoxicity); details: for Cell viability compared to the non-treatment group / Cytotoxicity, in words: 24 hours; for Cytotoxicity, in words: test concentration 0.1 to 10 μg/ml
Experimental: The colon cancer cell SW.71 as a cell line used for the experiment was kept in −196° C. liquid nitrogen tank until use. The colon cancer cell SW.71 was added, in RPMI-1640 (Life Technologies Inc., USA) medium, with 10% FBS (fetal bovine serum, Gibco) and 1% penicillin-streptomycin, cultured for 72 hours in an incubator at condition of 37° C., 5% CO2, and then used. As for the MTT reagent, thiazolyl blue tetrazolium bromide was used, and, after dissolving it in PBS (phosphate buffer saline) to have final concentration of 5 mg/ml, it was kept at 4° C. under light-shielding condition. The colon cancer cell SW.71 was inoculated, in an amount of 130 μl, to a 96-well plate to have concentration of 5×10^3 or 1×10^4 cells/well. […] After culturing the cells for 24 hours, the MTT solution was added in an amount of 14.5 μl for each well followed by culture for 2 hours or longer at 37° C. The medium was carefully removed and DMSO was added in an amount of 108.5 μl per well to terminate the reaction followed by stirring using a plate shaker for 30 minutes at room temperature, dark conditions. Thereafter, by using a microplate ELISA reader, absorbance at a wavelength of 540 nm was measured, and the cell viability after culture for 24 hours was examined. For the non-treatment group, 1% MeOH was added to a DMEM medium. All the experiments were repeated in triplicate.

[1] = test system: sweet potato root knot nematode (M. incognita) 2nd stage juveniles; experiment: organism not typed; details: for LC50: Meloidogyne incognita, read-out: LC50 M. incognita 72 h
Experimental: The three layers were finally applied at concentrations of 15.6, 31.3, 62.5, 125, 250, 500, or 1,000 μg/ml. As a control group, treatment with 1% acetone and methanol was carried out, and, after the treatment, the 96-well plate was shaken for 30 seconds so that the test compound is mixed well. Thereafter, the plate was added to a plastic container having relative humidity of 100% and stored at room temperature. To obtain eggs of a root knot nematode from roots of tomato infected by root knot nematode, plant roots were washed with tap water to remove adhering soil and cut into 1 cm pieces. Eggs were extracted in 0.5% sodium hypochlorite solution for 1 min and collected by passage through 45 and 25 μm sieves. Second-stage juveniles (J2) were allowed to hatch in modified Baermann funnels at 20° C.
Ninety nine μl of 50 2nd stage juveniles of sweet potato root knot nematode were added to each well of a 96-well plate, and then, according to a treatment of 1% solvent extract, the final volume per well was adjusted to 100 μl. […] 72 Hours after the treatment with a test compound, mortality was determined under an optical inverted microscope by using the equation shown below. As for the mortality, the linear nematode showing no movement was taken as dead nematode, the nematode showing movement of flexible curve was taken as live nematode, and the mortality was examined using the following equation. Mortality (%)=[Mortality percentage in treatment−mortality percentage of negative control/(100−mortality percentage in negative control)]×100
To determine the mortality and activity of inhibiting egg hatching of the purified compound, the compound was dissolved in methanol and trans-cinnamaldehyde as a control agent was dissolved in ethanol and used for the experiment. […] Furthermore, the activity of inhibiting egg hatching of sweet potato root knot nematode (M. incognita) was also examined at the same concentration. As a non-treatment group, 1% methanol and ethanol were used, and, according to the method explained above, the mortality and activity of inhibiting egg hatching were examined. The experiments were carried out in triplicate. The mortality was determined 3 days after the treatment of a test compound while the rate of inhibiting egg hatching was determined 14 days after the treatment of a test compound. The rate of inhibiting egg hatching was calculated based on the following equation. Egg hatching inhibitory activity (%)=[(C−T)/C]×100,

[2] = test system: carrot root knot nematode (M. hapla) 2nd stage juveniles; experiment: Mortality against 2nd stage juveniles of carrot root knot nematode; parameters: species or system Meloidogyne hapla; details: 72 h; for LC50: 2nd stage juveniles
[3] = test system: eggs of sweet potato root knot nematode (M. incognita); experiment: Egg hatching inhibitory activity against sweet potato root knot nematode; parameters: species or system Meloidogyne incognita; details: 336 h, 14 days after treatment, read-out: Rate of inhibiting egg hatching; for inhibition at 3.1 µg/mL: 3.1 μg/ml; for inhibition at 25 µg/mL: 25 μg/ml
Experimental: The experiments were carried out in triplicate. […] Egg hatching inhibitory activity (%)=[(C−T)/C]×100,
C=Egg hatching rate of control group*, T=Egg hatching rate of treatment group *Egg hatching rate (%)=Number of juveniles/[Number of egg+Number of juveniles]×100

O=C1C=C2C(=CCOC2O)O1 (stereo not shown) [patulin]
Cell viability compared to the non-treatment group (colon cancer cell SW.71; 0.1 μg/ml, 1×10^4 cells/well): 66.2% | Cell viability compared to the non-treatment group (colon cancer cell SW.71; 0.1 μg/ml, 5×10^3 cells/well): 72.2% | Cell viability compared to the non-treatment group (colon cancer cell SW.71; 0.5 μg/ml, 1×10^4 cells/well): 80.5% | Cell viability compared to the non-treatment group (colon cancer cell SW.71; 0.5 μg/ml, 5×10^3 cells/well): 72.1% | Cell viability compared to the non-treatment group (colon cancer cell SW.71; 1 μg/ml, 1×10^4 cells/well): 75.3% | Cell viability compared to the non-treatment group (colon cancer cell SW.71; 1 μg/ml, 5×10^3 cells/well): 42.1% | Cell viability compared to the non-treatment group (colon cancer cell SW.71; 5 μg/ml, 1×10^4 cells/well): 58.4% | Cell viability compared to the non-treatment group (colon cancer cell SW.71; 5 μg/ml, 5×10^3 cells/well): 43.5% | Cell viability compared to the non-treatment group (colon cancer cell SW.71; 10 μg/ml, 1×10^4 cells/well): 27.6% | Cell viability compared to the non-treatment group (colon cancer cell SW.71; 10 μg/ml, 5×10^3 cells/well): 31.4% | Mortality against root knot nematodes, in words (summary) [1]: almost no activity | mortality at 100 µg/mL [1]: 38.7%

O=C/C=C/c1ccccc1 [trans-cinnamaldehyde]
LC50 [2]: 8.56 mg/L (≈ 64.8 µM) | LC50 ([1]; 72 h): 18.3 mg/L (≈ 139 µM) | inhibition at 3.1 µg/mL [3]: 31.3% | inhibition at 25 µg/mL [3]: 65%

O=C1C=C2C(O)C=COC2O1 (stereo not shown) [grammicin]
Cytotoxicity for colon cancer cells, in words (summary) (colon cancer cell SW.71; at a test concentration): no toxicity | Cytotoxicity, in words (colon cancer cell SW.71; 1×10^4 cells/well): no cytotoxicity | Cytotoxicity, in words (colon cancer cell SW.71; 5×10^3 cells/well): no cytotoxicity | mortality at 25 µg/mL ([2]; 25 μg/ml, 3 days after treatment): 62.4% | mortality at 50 µg/mL ([2]; 50 μg/ml, 3 days after treatment): 100% | LC50 [2]: 3.12 mg/L (≈ 20.2 µM) | Mortality against root knot nematodes, in words (summary) [1]: very high mortality | mortality at 12.5 µg/mL ([1]; 72 h): 52.8% | mortality at 50 µg/mL ([1]; 72 h): 100% | LC50 ([1]; 72 h): 15.9 mg/L (≈ 103 µM) | inhibition at 3.1 µg/mL [3]: 68.2% | inhibition at 25 µg/mL [3]: 91.4%
